The results in this text go back to patent US10125134B2 (Mirati Therapeutics, Inc., priority 2016, dated 2018).

For one assay, the target named is KRas G12C (Homo sapiens, UniProt P01116, C118S/C51S/C80L/G12C). The assay is described as follows: KRas G12C Modification Assay (LCMS detection of covalent adduct). It counts as binding. The conditions noted are these: normalized percent of control; tested at 5 μM concentration for 3 hours. As for the experimental part: A 10 μL aliquot of each protein solution was then transferred to a 384 well microtiter plate. Initial compound stocks were generated at fifty times their desired final assay concentration in DMSO.
Exemplary compounds of Formula (I) were diluted 25-fold into K-Ras Assay Buffer to a final of two times their final concentration. A 10 μL aliquot of each diluted compound solution was then added to each of the protein solutions in the microtiter plate to initiate reaction. […] At each time point, the reactions were quenched with 20 μL of a 25 mM acetic acid solution. […] Once all reactions were quenched, the plates were heat sealed and the samples were injected into a LC/MS system for data acquisition.
Samples were injected in their liquid phase onto a C-3 reverse phase column to remove assay buffer and prepare the samples for mass spectrometer. The proteins were eluted from the column using an acetonitrile gradient and fed directly into the mass analyzer. Initial raw data analysis took place in Agilent MassHunter software immediately post data acquisition.
Raw data analysis of the intact protein was exclusively a deconvolution of the multiple charge states of each protein in solution using a maximum entropy deconvolution provided in Mass Hunter. To minimize complexity, only the data over limited mass ranges were considered for analysis, with a minimum of one Dalton mass step intervals. The heights of all masses identified during raw data analysis were exported to be further analyzed in Spotfire® data analysis software.
Final data analysis was a multistep process in the Spotfire® data analysis software package. Briefly, each protein mass was calculated as a percent of the total signal of that sample, that percentage was then normalized to the percentage of signal of the protein in the absence of reactive compounds. Those normalized signals were reported as normalized percent of control (POC). […] Key: “A”≤25% POC; “B”>25% POC−≤50% POC; “C”>50% POC and ND=not determined.

Assay [1] has as its system NCI-H358 cells (express KRas G12C), Phospho-ERK. As to the kind of experiment: Cellular inhibition of KRas G12C: Phospho-ERK in NCI-H358 cells. It counts as cell-based. As for the experimental part: The cellular inhibition of KRAs G12C by exemplary compounds of the present invention was determined by measuring the amount of a downstream marker of KRas activity, phosphorylated ERK (“Phospho-ERK”).
Cells were plated in poly-D-Lysine coated 96-well plates at a concentration of 50,000 cells/well and allowed to attach for 8-12 hours. Diluted compounds were then added at a final concentration of 0.5% DMSO. After 3 hours, the medium was removed, 150 μL of 4% formaldehyde was added and the plates were incubated for 20 minutes. The plates were washed with PBS, and permeabilized using 150 μL of ice cold 100% methanol for 10 minutes. Non-specific antibody binding to the plates was blocked using 100 μL Licor Blocking Buffer (Li-Cor Biotechnology, Lincoln Nebr.) for 1 hour at room temperature. Positive control samples and samples lacking cells were parallel processed with test samples as standards.
The amount Phospho-ERK was determined using an antibody specific for the phosphorylated form of ERK and compared to the amount of GAPDH. […] The plates were incubated for 2 hours at room temperature. The plates were washed with PBS+0.05% Tween 20.
Secondary antibodies used to visualize primary antibodies were added as follows: Anti-rabbit-680 diluted 1:1000 and Anti-mouse-800 diluted 1:1000 in Licor Block+0.05% Tween 20 and incubated for 1 hour at room temperature. The plates were washed with PBS+0.05% Tween 20. A 100 μL aliquot of PBS was added to each well and the plates were read on a LICOR AERIUS plate reader.
The pERK(Thr202/Tyr204) signal was normalized with the GAPDH signal and percent of DMSO control values were calculated. IC50 values were generated using a 4 parameter fit of the dose response curve. Key: “A”≥0.0001−≤1 μM; and “B”>1 μM.

Where [2] appears, read: Homo sapiens, NCI-H358, 3 h, pERK(Thr202/Tyr204) normalized with GAPDH, NCI-H358 cells, 3 hours, read-out: IC50.
Where [3] appears, read: Homo sapiens, pERK(Thr202/Tyr204) normalized with GAPDH, NCI-H358 cells, 3 hours, read-out: IC50.
Setting [4] is: pERK(Thr202/Tyr204) normalized with GAPDH, NCI-H358 cells, 3 hours, read-out: IC50.

pIC50: −log10 of the molar value. Read-outs that look alike come from different tables or passages of the source. Bounds are passed on as bounds.

As to `C=CC(=O)N1CCN(c2nc(OC[C@@H]3CCCC(=O)N3)nc3c2CCN(c2cc(O)cc4ccccc24)C3)CC1` (single isomer, unassigned) [Example 61], the POC entry at KRas G12C was “C (“C”>50% POC)”. In addition, the pIC50 in assay [1] (setting [2]) is below 6.00.
Take `C=CC(=O)N1CCN(c2nc(OC[C@H]3CCCC(=O)N3)nc3c2CCN(c2cc(O)cc4ccccc24)C3)CC1` (single isomer, unassigned) [Example 62]: the POC result on KRas G12C was “C (“C”>50% POC)”. Moreover, the pIC50 in assay [1] (setting [2]) was below 6.00.
Taken in the same sequence, the figures for `C=CC(=O)N1CCN(c2nc(OC[C@H](O)CN3CCOCC3)nc3c2CCN(c2cc(O)cc4ccccc24)C3)CC1` (single isomer, unassigned) [Example 215] were “C (“C”>50% POC)” and below 6.00.
For `C=CC(=O)N1CCN(c2nc(OC[C@@H](O)CN3CCOCC3)nc3c2CCN(c2cc(O)cc4ccccc24)C3)CC1` (single isomer, unassigned) [Example 216], in that order: “C (“C”>50% POC)” and below 6.00.
For `C=CC(=O)N1CCN(c2ncnc3c2CCN(c2cc(O)cc4ccccc24)C3)CC1` [Example 1, 1-(4-(7-(3-hydroxynaphthalen-1-yl)-5,6,7,8-tetrahydropyrido[3,4-d]pyrimidin-4-yl)piperazin-1-yl)prop-2-en-1-one], in that order: “B (“B”>25% POC−≤50% POC)” and below 6.00.
On to `C=CC(=O)N1CCN(c2ncnc3c2CCN(c2cccc4ccc(O)cc24)C3)CC1` [Example 2, 1-(4-(7-(7-hydroxynaphthalen-1-yl)-5,6,7,8-tetrahydropyrido[3,4-d]pyrimidin-4-yl)piperazin-1-yl)prop-2-en-1-one], for which, on KRas G12C, the POC result was “A (“A”≤25% POC)”. The pIC50 in assay [1] (setting [2]) is below 6.00.
In the case of `C=CC(=O)N1CCN(c2nc(OC[C@@H]3CCCN3C)nc3c2CCN(c2cc(O)cc4ccccc24)C3)CC1` [Example 127, (S)-1-(4-(7-(3-hydroxynaphthalen-1-yl)-2-((1-methylpyrrolidin-2-yl)methoxy)-5,6,7,8-tetrahydropyrido[3,4-d]pyrimidin-4-yl)piperazin-1-yl)prop-2-en-1-one], the pIC50 in assay [1] (Homo sapiens, NCI-H358, 3 h) was 6.00 to 10.00.
Consider `C=CC(=O)N1CCN(c2nc(OC[C@H]3CCCN3C)nc3c2CCN(c2cc(O)cc4ccccc24)C3)CC1` [Example 187, (R)-1-(4-(7-(3-hydroxynaphthalen-1-yl)-2-((1-methylpyrrolidin-2-yl)methoxy)-5,6,7,8-tetrahydropyrido[3,4-d]pyrimidin-4-yl)piperazin-1-yl)prop-2-en-1-one], for which the negative logarithm of the IC50 (pIC50) in assay [1] (Homo sapiens, NCI-H358, 3 h) was 6.00 to 10.00.
In turn, `C=CC(=O)N1CCN(c2nc(OC[C@@H]3CCCN3C)nc3c2CCN(c2cccc4ccccc24)C3)CC1` [Example 200, (S)-1-(4-(2-((1-methylpyrrolidin-2-yl)methoxy)-7-(naphthalen-1-yl)-5,6,7,8-tetrahydropyrido[3,4-d]pyrimidin-4-yl)piperazin-1-yl)prop-2-en-1-one] had a negative logarithm of the IC50 (pIC50) in assay [1] (Homo sapiens, NCI-H358, 3 h) below 6.00.
Turning to `CC#CC(=O)N1CCN(c2nc(OC[C@@H]3CCCN3C)nc3c2CCN(c2cccc4ccccc24)C3)CC1CC#N` (stereo partly drawn) [Example 242, 2-(1-(but-2-ynoyl)-4-(2-(((S)-1-methylpyrrolidin-2-yl)methoxy)-7-(naphthalen-1-yl)-5,6,7,8-tetrahydropyrido[3,4-d]pyrimidin-4-yl)piperazin-2-yl)acetonitrile], the negative logarithm of the IC50 (pIC50) in assay [1] (setting [3]) was 6.00 to 10.00.
For `C=CC(=O)N1CCN(c2nc(OC[C@]3(C)CCCN3C)nc3c2CCN(c2cccc4ccccc24)C3)CC1CC#N` (stereo partly drawn) [Example 251, 2-(1-acryloyl-4-(2-(((S)-1,2-dimethylpyrrolidin-2-yl)methoxy)-7-(naphthalen-1-yl)-5,6,7,8-tetrahydropyrido[3,4-d]pyrimidin-4-yl)piperazin-2-yl)acetonitrile], the pIC50 in assay [1] (Homo sapiens, NCI-H358, 3 h) was 6.00 to 10.00.
For the molecule `C=CC(=O)N1CCN(c2nc(OC[C@@H]3CCCN3C)nc3c2CCN(c2cccc4cccc(Cl)c24)C3)CC1CC#N` (stereo partly drawn) [Example 310, 2-(1-acryloyl-4-(7-(8-chloronaphthalen-1-yl)-2-(((S)-1-methylpyrrolidin-2-yl)methoxy)-5,6,7,8-tetrahydropyrido[3,4-d]pyrimidin-4-yl)piperazin-2-yl)acetonitrile], in assay [1] (Homo sapiens, NCI-H358, 3 h), the negative logarithm of the IC50 (pIC50) is 6.00 to 10.00.
As for `C=CC(=O)N1CCN(c2nc(OC[C@@H]3CCCN3C)nc3c2CCN(c2cccc4cccc(Cl)c24)C3)C[C@@H]1CC#N` [Example 331, 2-[(2S)-4-[7-(8-chloro-1-naphthyl)-2-[[(2S)-1-methylpyrrolidin-2-yl]methoxy]-6,8-dihydro-5H-pyrido[3,4-d]pyrimidin-4-yl]-1-prop-2-enoyl-piperazin-2-yl]acetonitrile], the pIC50 in assay [1] (Homo sapiens, NCI-H358, 3 h) is 6.00 to 10.00.
Turning to `C=CC(=O)N1CCN(c2nc(OC[C@H]3CCCN3C)nc3c2CCN(c2cccc(F)c2C(F)(F)F)C3)C[C@@H]1CC#N` [Example 382, 2-((S)-1-acryloyl-4-(7-(3-fluoro-2-(trifluoromethyl)phenyl)-2-(((R)-1-methylpyrrolidin-2-yl)methoxy)-5,6,7,8-tetrahydropyrido[3,4-d]pyrimidin-4-yl)piperazin-2-yl)acetonitrile], the pIC50 in assay [1] (setting [4]) is 6.00 to 10.00.
Consider `C=CC(=O)N1CCN(c2nc(OC[C@@H]3CCCN3C)nc3c2CCN(c2cccc(C)c2C(F)(F)F)C3)C[C@@H]1CC#N` [Example 392, 2-((S)-1-acryloyl-4-(7-(3-methyl-2-(trifluoromethyl)phenyl)-2-(((S)-1-methylpyrrolidin-2-yl)methoxy)-5,6,7,8-tetrahydropyrido[3,4-d]pyrimidin-4-yl)piperazin-2-yl)acetonitrile], for which, in assay [1] (setting [4]), the pIC50 is 6.00 to 10.00.
Take `C=CC(=O)N1CCN(c2nc(OC[C@H]3CN(C)CCO3)nc3c2CCN(c2cccc4ccccc24)C3)CC1CC#N` (stereo partly drawn) [Example 441, 2-(1-Acryloyl-4-(2-(((R)-4-methylmorpholin-2-yl)methoxy)-7-(naphthalen-1-yl)-5,6,7,8-tetrahydropyrido[3,4-d]pyrimidin-4-yl)piperazin-2-yl)acetonitrile]: the POC result on KRas G12C is “C (“C”>50% POC)”.
`C=CC(=O)N1CCN(c2nc(OC[C@H]3CN(C)[C@H](C)CO3)nc3c2CCN(c2cccc4ccccc24)C3)C[C@@H]1CC#N` [Example 449, 2-((S)-1-Acryloyl-4-(2-(((2R,5R)-4,5-dimethylmorpholin-2-yl)methoxy)-7-(naphthalen-1-yl)-5,6,7,8-tetrahydropyrido[3,4-d]pyrimidin-4-yl)piperazin-2-yl)acetonitrile]: the POC entry at KRas G12C was “C (“C”>50% POC)”.
Turning to `C=CC(=O)N1CCN(c2nc(OC[C@@H]3CCCN3C)nc3c2CCN(c2cccc4cccc(OC)c24)C3)C[C@@H]1CC#N` [Example 463, 2-((S)-1-acryloyl-4-(7-(8-methoxynaphthalen-1-yl)-2-(((S)-1-methylpyrrolidin-2-yl)methoxy)-5,6,7,8-tetrahydropyrido[3,4-d]pyrimidin-4-yl)piperazin-2-yl)acetonitrile], the pIC50 in assay [1] (setting [3]) was below 6.00.
Same read-out and setting: to `C=CC(=O)N1CCN(c2nc(OC[C@@H]3CCCN3C)nc3c2CCN(c2cccc4cccc(C#N)c24)C3)C[C@@H]1CC#N` [Example 464, 8-(4-((S)-4-acryloyl-3-(cyanomethyl)piperazin-1-yl)-2-(((S)-1-methylpyrrolidin-2-yl)methoxy)-5,8-dihydropyrido[3,4-d]pyrimidin-7(6H)-yl)-1-naphthonitrile] belongs 6.00 to 10.00.
